Among the data in patent US20250145665A1, “MACROCYCLIC PEPTIDES USEFUL AS MODULATORS OF TNF ALPHA” (Bristol-Myers Squibb Company, priority 2023, published 2025) are IC50 values, retold here.

Starred links: 1 amine or outer side, 2 acyl side, 3 side chain; linkers in the order of their positions; H or OH if unused. Positions of bridges follow the written chain, without caps; N, C: chain ends. Non-standard residues stand in square brackets, D forms with d. Residues, ends and D or L forms follow the SMILES beside them. *: point of attachment. dArg(Nω-CH2C6H4-3-CH2Gua) = N=C(N)NCc1cccc(CNC(=N)NCCC[C@@H](N)C(=O)O)c1; dArg(ω-(2S)-2,3-diOHpropyl) = N=C(NCCC[C@@H](N)C(=O)O)NC[C@H](O)CO; Bip(4'-NH) = O=C([C@H](Cc1ccc(-c2ccc(N[*:3])cc2)cc1)N[*:1])[*:2]; X45 = CS(=O)(=O)Nc1ccc(CNC(=N)NCCC[C@@H](N[*:1])C(=O)[*:2])cc1; Indazole3carbonyl(1-CH2COOH) = O=C(O)Cn1nc(C(=O)*)c2ccccc21; Bip(4'-COOH) = N[C@@H](Cc1ccc(-c2ccc(C(=O)O)cc2)cc1)C(=O)O; Bip(4'-NHAc) = CC(=O)Nc1ccc(-c2ccc(C[C@H](N)C(=O)O)cc2)cc1; Indole3carbonyl(1-CH2COOH) = O=C(O)Cn1cc(C(=O)*)c2ccccc21; Ala(imidazol-2-yl) = N[C@@H](Cc1ncc[nH]1)C(=O)O; Ala(morpholin-4-yl) = N[C@@H](CN1CCOCC1)C(=O)O; Benzoyl(4-OCH2COOH) = O=C(O)COc1ccc(C(=O)*)cc1; X41 = N=C(NCCCO)NCCC[C@@H](N[*:1])C(=O)[*:2]; Bip = N[C@@H](Cc1ccc(-c2ccccc2)cc1)C(=O)O; 2Pal = N[C@@H](Cc1ccccn1)C(=O)O; Cha = N[C@@H](CC1CCCCC1)C(=O)O; Chg = N[C@H](C(=O)O)C1CCCCC1; Sar = CNCC(=O)O

Chain of TNFα (P01375 77-233 limits assumed): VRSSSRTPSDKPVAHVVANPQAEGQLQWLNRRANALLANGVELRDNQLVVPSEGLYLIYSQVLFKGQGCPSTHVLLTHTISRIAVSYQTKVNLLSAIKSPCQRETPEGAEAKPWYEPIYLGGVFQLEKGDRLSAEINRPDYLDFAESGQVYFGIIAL

The first assay addresses TNFα (Homo sapiens, UniProt P01375). As to the kind of experiment: TNF-Induced HEK-Blue Assay. The format is cell-based.
Settings: not given
The term IC50 denotes the concentration at which inhibition is half-maximal. Molecule `CC(C)C[C@@H]1NC(=O)[C@H](Cc2ccc(O)cc2)NC(=O)[C@H](C(C)C)NC(=O)[C@@H]2CCCN2C(=O)[C@H](C(C)C)NC(=O)[C@@H](CCCNC(=N)N)NC(=O)[C@H](CC(=O)O)NC(=O)[C@@H]2CCCN2C(=O)CN(C)C(=O)[C@H](Cc2ccc(-c3ccc(NC(=O)c4nn(CC(=O)O)c5ccccc45)cc3)cc2)NC(=O)[C@H](Cc2ccc(-c3ccc(C(=O)O)cc3)cc2)NC(=O)[C@H](CC2CCCCC2)NC(=O)CSC[C@@H](C(=O)NCC(N)=O)NC1=O` [Example 363] ({CH2CO}-[Cha][Bip(4'-COOH)][Bip(4'-NH)](Indazole3carbonyl(1-CH2COOH))[Sar]PD[dR]VPVYLCG-NH2; thioether N-13) returned a 50% inhibitory concentration (IC50) of less than 50 nM.

In turn, `CC(C)C[C@@H]1NC(=O)[C@H](CCCNC(=N)N)NC(=O)[C@H](C(C)C)NC(=O)[C@@H]2CCCN2C(=O)[C@H](C(C)C)NC(=O)[C@@H](CCCNC(=N)NC[C@H](O)CO)NC(=O)[C@H](CC(=O)O)NC(=O)[C@@H]2CCCN2C(=O)CN(C)C(=O)[C@H](Cc2ccc(-c3ccc(NC(=O)c4cn(CC(=O)O)c5ccccc45)cc3)cc2)NC(=O)[C@H](Cc2ccc(-c3ccccc3)cc2)NC(=O)[C@H](CN2CCOCC2)NC(=O)CSC[C@@H](C(=O)NCC(N)=O)NC1=O` [Example 540] ({CH2CO}-[Ala(morpholin-4-yl)][Bip][Bip(4'-NH)](Indole3carbonyl(1-CH2COOH))[Sar]PD[dArg(ω-(2S)-2,3-diOHpropyl)]VPVRLCG-NH2; thioether N-13) displayed an IC50 of less than 50 nM.

Molecule `CC(C)C[C@@H]1NC(=O)[C@H](Cc2cnc[nH]2)NC(=O)[C@H](C(C)C)NC(=O)[C@@H]2CCCN2C(=O)[C@H](C(C)C)NC(=O)[C@@H](CCCNC(=N)NCc2cccc(CNC(=N)N)c2)NC(=O)[C@H](CC(=O)O)NC(=O)[C@H](Cc2ccccn2)NC(=O)CN(C)C(=O)[C@H](Cc2ccc(-c3ccc(NC(=O)c4nn(CC(=O)O)c5ccccc45)cc3)cc2)NC(=O)[C@H](Cc2ccc(-c3ccccc3)cc2)NC(=O)[C@H](CN2CCOCC2)NC(=O)CSC[C@@H](C(=O)NCC(N)=O)NC1=O` [Example 621] ({CH2CO}-[Ala(morpholin-4-yl)][Bip][Bip(4'-NH)](Indazole3carbonyl(1-CH2COOH))[Sar][2Pal]D[dArg(Nω-CH2C6H4-3-CH2Gua)]VPVHLCG-NH2; thioether N-13) displayed an IC50 of less than 50 nM. The molecule `CC(C)C[C@@H]1NC(=O)[C@H](Cc2ncc[nH]2)NC(=O)[C@H](C(C)C)NC(=O)[C@@H]2CCCN2C(=O)[C@H](C(C)C)NC(=O)[C@@H](CCCNC(=N)NCc2cccc(CNC(=N)N)c2)NC(=O)[C@H](CC(=O)O)NC(=O)[C@H](Cc2ccccn2)NC(=O)CN(C)C(=O)[C@H](Cc2ccc(-c3ccc(NC(=O)c4nn(CC(=O)O)c5ccccc45)cc3)cc2)NC(=O)[C@H](Cc2ccc(-c3ccc(C(=O)O)cc3)cc2)NC(=O)[C@H](CC2CCCCC2)NC(=O)CSC[C@@H](C(=O)NCC(N)=O)NC1=O` [Example 556] ({CH2CO}-[Cha][Bip(4'-COOH)][Bip(4'-NH)](Indazole3carbonyl(1-CH2COOH))[Sar][2Pal]D[dArg(Nω-CH2C6H4-3-CH2Gua)]VPV[Ala(imidazol-2-yl)]LCG-NH2; thioether N-13) had a concentration for half-maximal inhibition (IC50) of less than 50 nM.

Turning to `CC(C)C[C@@H]1NC(=O)[C@H](CCCNC(=N)N)NC(=O)[C@H](C(C)C)NC(=O)[C@@H]2CCCN2C(=O)[C@H](C(C)C)NC(=O)[C@@H](CCCNC(=N)NCc2ccc(NS(C)(=O)=O)cc2)NC(=O)[C@H](CC(=O)O)NC(=O)[C@@H]2CCCN2C(=O)CN(C)C(=O)[C@H](Cc2ccc(-c3ccc(NC(=O)c4nn(CC(=O)O)c5ccccc45)cc3)cc2)NC(=O)[C@H](Cc2ccc(-c3ccccc3)cc2)NC(=O)[C@H](CN2CCOCC2)NC(=O)CSC[C@@H](C(=O)NCC(N)=O)NC1=O` [Example 427] ({CH2CO}-[Ala(morpholin-4-yl)][Bip][Bip(4'-NH)](Indazole3carbonyl(1-CH2COOH))[Sar]PD[X45]VPVRLCG-NH2; thioether N-13), the half-inhibitory concentration (IC50) is 50 to 200 nM. The same measure, in the same setting: for `CC(C)C[C@@H]1NC(=O)[C@H](CCCNC(=N)N)NC(=O)[C@H](C(C)C)NC(=O)[C@@H]2CCCN2C(=O)[C@H](C(C)C)NC(=O)[C@@H](CCCNC(=N)NCCCO)NC(=O)[C@H](CC(=O)O)NC(=O)[C@@H]2CCCN2C(=O)CN(C)C(=O)[C@H](Cc2ccc(-c3ccc(NC(=O)c4nn(CC(=O)O)c5ccccc45)cc3)cc2)NC(=O)[C@H](Cc2ccc(-c3ccccc3)cc2)NC(=O)[C@H](CN2CCOCC2)NC(=O)CSC[C@@H](C(=O)NCC(N)=O)NC1=O` [Example 389] ({CH2CO}-[Ala(morpholin-4-yl)][Bip][Bip(4'-NH)](Indazole3carbonyl(1-CH2COOH))[Sar]PD[X41]VPVRLCG-NH2; thioether N-13) the value was less than 50 nM.

Still in this assay, the particulars now being: HEK-Blue-CD40L cells, NF-kB-driven secreted alkaline phosphatase reporter; TNFα 0.5 ng/ml; 18 h; read-out: TNF induced HEK-Blue assay IC50 value.
Take `CC(=O)Nc1ccc(-c2ccc(C[C@@H]3NC(=O)[C@H](Cc4ccc(-c5ccccc5)cc4)NC(=O)[C@H](CN4CCOCC4)NC(=O)CSC[C@@H](C(=O)NCC(N)=O)NC(=O)[C@H](CC(C)C)NC(=O)[C@H](CCCNC(=N)N)NC(=O)[C@H](C4CCCCC4)NC(=O)[C@@H]4CCCN4C(=O)[C@H](C(C)C)NC(=O)[C@@H](CCCNC(=N)N)NC(=O)[C@H](CC(=O)O)NC(=O)[C@H](Cc4cnc[nH]4)NC(=O)CN(C)C3=O)cc2)cc1` [Example 232] ({CH2CO}-[Ala(morpholin-4-yl)][Bip][Bip(4'-NHAc)][Sar]HD[dR]VP[Chg]RLCG-NH2; thioether N-13): the concentration for half-maximal inhibition (IC50) was less than 50 nM. With `CC(C)C[C@@H]1NC(=O)[C@H](Cc2ccc(O)cc2)NC(=O)[C@H](C(C)C)NC(=O)[C@@H]2CCCN2C(=O)[C@H](C(C)C)NC(=O)[C@H](CCCNC(=N)N)NC(=O)[C@H](CC(=O)O)NC(=O)[C@@H]2CCCN2C(=O)CN(C)C(=O)[C@H](Cc2ccc(-c3ccccc3)cc2)NC(=O)[C@H](Cc2ccc(-c3ccc(C(=O)O)cc3)cc2)NC(=O)[C@H](CN2CCOCC2)NC(=O)CSC[C@@H](C(=O)NCC(N)=O)NC1=O` [Example 124] ({CH2CO}-[Ala(morpholin-4-yl)][Bip(4'-COOH)][Bip][Sar]PDRVPVYLCG-NH2; thioether N-13), the 50% inhibitory concentration (IC50) was 50 to 200 nM. Turning to `CC(C)C[C@@H]1NC(=O)[C@H](CCCNC(=N)N)NC(=O)[C@H](C(C)C)NC(=O)[C@@H]2CCCN2C(=O)[C@H](C(C)C)NC(=O)[C@@H](CCCNC(=N)N)NC(=O)[C@H](CC(=O)O)NC(=O)[C@H](Cc2ccccn2)NC(=O)CN(C)C(=O)[C@H](Cc2ccc(-c3ccccc3)cc2)NC(=O)[C@H](Cc2ccc(-c3ccccc3)cc2)NC(=O)[C@H](CN2CCOCC2)NC(=O)CSC[C@@H](C(=O)NCC(N)=O)NC1=O` [Example 205] ({CH2CO}-[Ala(morpholin-4-yl)][Bip][Bip][Sar][2Pal]D[dR]VPVRLCG-NH2; thioether N-13), the IC50 is 50 to 200 nM.

With `CC(C)C[C@@H]1NC(=O)[C@H](Cc2cnc[nH]2)NC(=O)[C@H](C(C)C)NC(=O)[C@@H]2CCCN2C(=O)[C@H](C(C)C)NC(=O)[C@@H](CCCNC(=N)N)NC(=O)[C@H](CC(=O)O)NC(=O)[C@H](Cc2ccccn2)NC(=O)CN(C)C(=O)[C@H](Cc2ccc(-c3ccc(NC(=O)c4ccc(OCC(=O)O)cc4)cc3)cc2)NC(=O)[C@H](Cc2ccc(-c3ccccc3)cc2)NC(=O)[C@H](CN2CCOCC2)NC(=O)CSC[C@@H](C(=O)NCC(N)=O)NC1=O` [Example 494] ({CH2CO}-[Ala(morpholin-4-yl)][Bip][Bip(4'-NH)](Benzoyl(4-OCH2COOH))[Sar][2Pal]D[dR]VPVHLCG-NH2; thioether N-13), the IC50 is less than 50 nM. Still for that read-out and setting: for `CC(=O)Nc1ccc(-c2ccc(C[C@@H]3NC(=O)[C@H](Cc4ccc(-c5ccccc5)cc4)NC(=O)[C@H](CN4CCOCC4)NC(=O)CSC[C@@H](C(=O)NCC(N)=O)NC(=O)[C@H](CC(C)C)NC(=O)[C@H](Cc4ccccn4)NC(=O)[C@H](C(C)C)NC(=O)[C@@H]4CCCN4C(=O)[C@H](C(C)C)NC(=O)[C@@H](CCCNC(=N)N)NC(=O)[C@H](CC(=O)O)NC(=O)[C@H](Cc4ccccc4)NC(=O)CN(C)C3=O)cc2)cc1` [Example 228] ({CH2CO}-[Ala(morpholin-4-yl)][Bip][Bip(4'-NHAc)][Sar]FD[dR]VPV[2Pal]LCG-NH2; thioether N-13) the value was less than 50 nM. Still for that read-out and setting: then `CC[C@H](C)[C@@H]1NC(=O)[C@@H](CCCNC(=N)N)NC(=O)[C@H](CC(=O)O)NC(=O)[C@@H]2CCCN2C(=O)CN(C)C(=O)[C@H](Cc2ccc(-c3ccc(NC(C)=O)cc3)cc2)NC(=O)[C@H](Cc2ccc(-c3ccc(C(=O)O)cc3)cc2)NC(=O)[C@H](CC2CCCCC2)NC(=O)CSC[C@@H](C(=O)NCC(N)=O)NC(=O)[C@H](CC(C)C)NC(=O)[C@H](Cc2ccc(O)cc2)NC(=O)[C@H](C(C)C)NC(=O)[C@@H]2CCCN2C1=O` [Example 256] ({CH2CO}-[Cha][Bip(4'-COOH)][Bip(4'-NHAc)][Sar]PD[dR]IPVYLCG-NH2; thioether N-13), with 50 to 200 nM; and `CC[C@H](C)[C@@H]1NC(=O)[C@@H]2CCCN2C(=O)[C@H](C(C)C)NC(=O)[C@@H](CCCNC(=N)N)NC(=O)[C@H](CC(=O)O)NC(=O)[C@H](Cc2ccccn2)NC(=O)CN(C)C(=O)[C@H](Cc2ccc(-c3ccc(NC(C)=O)cc3)cc2)NC(=O)[C@H](Cc2ccc(-c3ccccc3)cc2)NC(=O)[C@H](CN2CCOCC2)NC(=O)CSC[C@@H](C(=O)NCC(N)=O)NC(=O)[C@H](CC(C)C)NC(=O)[C@H](Cc2ncc[nH]2)NC1=O` [Example 464] ({CH2CO}-[Ala(morpholin-4-yl)][Bip][Bip(4'-NHAc)][Sar][2Pal]D[dR]VPI[Ala(imidazol-2-yl)]LCG-NH2; thioether N-13), with less than 50 nM; and `CC(C)C[C@@H]1NC(=O)[C@H](CCCNC(=N)N)NC(=O)[C@H](C(C)C)NC(=O)[C@@H]2CCCN2C(=O)[C@H](C(C)C)NC(=O)[C@H](CCCNC(=N)N)NC(=O)[C@H](CC(=O)O)NC(=O)[C@@H]2CCCN2C(=O)CN(C)C(=O)[C@H](Cc2ccc(-c3ccccc3)cc2)NC(=O)[C@H](Cc2ccc(-c3ccccc3)cc2)NC(=O)[C@H](C(C)C)NC(=O)CSC[C@@H](C(=O)NCC(N)=O)NC1=O` [Example 9] ({CH2CO}-V[Bip][Bip][Sar]PDRVPVRLCG-NH2; thioether N-13), with 200 to 2000 nM.
